compound: CC(C)N(CCCNC(=O)Nc1ccc(C(C)(C)C)cc1)C[C@H]1O[C@@H](n2ccc3c(N)ncnc32)[C@H](O)[C@@H]1O + COc1cccc2cc(-c3nc([C@H]4CC[C@H](C(=O)O)CC4)n4ncnc(N)c34)[nH]c12 [OSI-027] (partner 0.5 µM); test: relative viability (nuclei count vs DMSO), 5 days (fraction); higher = more cells survive; conditions: first compound 8 µM
How it was run: (§1)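 Lung cancer cell lines were pin-tool dosed in 1536-well plates on the day after seeding, with either a lone drug or a fixed anchor-drug dose plus five library-drug doses (not always all listed) in √10 steps. Nuclei were counted on 4× images after 5 days. Relative viability is the ratio of treated-well to vehicle-well nuclei counts, with each value a median of duplicate plates.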

Cell Line	relative viability
SK-MES-1	0.586
H3255	0.538
COR-L23	0.689
COR-L 105	0.648
LOU-NH91	0.728
ChaGo-K-1	0.585
NCI-H2170	0.748
NCI-H3122	0.722
HOP-62	0.681
HCC-44	0.552
NCI-H522	0.809
LU99A	0.254
BEN	0.275
HARA	0.375
SW 900	0.512
HCC-78	0.346
NCI-H441	0.661
LCLC-97TM1	0.679
NCI-H1395	0.719
NCI-H1793	0.291

compound: CC(C)=CC[C@@H](O)C1=CC(=O)c2c(O)ccc(O)c2C1=O [Shikonin] + C[C@@H](Oc1cc(-c2cnn(C3CCNCC3)c2)cnc1N)c1c(Cl)ccc(F)c1Cl [Crizotinib] (partner 1 µM); test: as above; conditions: first compound 0.01 µM
How it was run: as §1

Cell Line	relative viability
PC-14	0.984
NCI-H1650	1.06
EBC-1	0.165
NCI-H1703	0.873
NCI-H2009	1.07
PC-3 [JPC-3]	1.03
LCLC-103H	0.953
NCI-H647	1.13
NCI-H2228	0.448
EMC-BAC-2	0.771
NCI-H2087	1.07
Calu-6	1.02
HCC-366	0.745
NCI-H1666	1.12
NCI-H650	0.818
LK-2	0.248
NCI-H2126	1.08
SK-MES-1	1.11

Cell Line	relative viability
H3255	0.945
COR-L23	0.735
COR-L 105	1.06
IA-LM	1.06
LOU-NH91	0.737
ChaGo-K-1	1.07
NCI-H2170	1.5
NCI-H3122	0.288
HOP-62	0.61
HCC-44	0.933
A549	0.748
LU99A	0.545
BEN	0.952
HARA	1.18
HCC-78	0.325
NCI-H441	0.921
LCLC-97TM1	0.573
NCI-H1299	0.958

same assay, conditions: first compound 0.1 µM

Cell Line	relative viability
PC-14	1.02
NCI-H1650	0.993
EBC-1	0.224
NCI-H1703	0.671
NCI-H2009	1.2
NCI-H1993	0.922
NCI-H520	0.878
PC-3 [JPC-3]	1.14
LCLC-103H	1
NCI-H647	1.29
NCI-H2228	0.532
EMC-BAC-2	0.715
NCI-H2087	0.781
Calu-6	0.854
HCC-366	0.373
NCI-H1666	0.971
LK-2	0.212
NCI-H2126	1.21

Cell Line	relative viability
SK-MES-1	1.05
H3255	1
COR-L23	0.786
COR-L 105	0.721
LOU-NH91	0.686
ChaGo-K-1	1.19
NCI-H2170	1.07
NCI-H3122	0.271
HOP-62	0.95
HCC-44	0.86
A549	0.932
LU99A	0.688
BEN	0.974
HARA	1.19
HCC-78	0.388
NCI-H441	0.782
LCLC-97TM1	0.46
NCI-H1299	1.09

same assay, conditions: first compound 0.3162 µM

Cell Line	relative viability
PC-14	0.841
NCI-H1650	1.06
EBC-1	0.216
NCI-H1703	0.633
NCI-H2009	0.972
NCI-H1993	0.866
NCI-H520	0.608
PC-3 [JPC-3]	1.03
LCLC-103H	1.13
NCI-H647	0.931
NCI-H2228	0.414
EMC-BAC-2	0.815
NCI-H2087	0.923
Calu-6	0.912
HCC-366	0.517
NCI-H1666	1.12
NCI-H650	0.643
LK-2	0.219
NCI-H2126	1.1

Cell Line	relative viability
SK-MES-1	1.08
H3255	0.958
COR-L23	0.601
COR-L 105	0.763
IA-LM	1.11
LOU-NH91	0.775
ChaGo-K-1	1.11
NCI-H2170	1.29
NCI-H3122	0.278
HOP-62	0.32
HCC-44	0.891
A549	0.872
LU99A	0.599
BEN	0.975
HARA	1.11
HCC-78	0.357
NCI-H441	0.887
LCLC-97TM1	0.3
NCI-H1299	0.965

same assay, conditions: first compound 1 µM

Cell Line	relative viability
PC-14	1.03
NCI-H1650	0.691
EBC-1	0.201
NCI-H1703	0.512
NCI-H2009	0.45
NCI-H1993	0.93
NCI-H520	0.842
PC-3 [JPC-3]	0.986
LCLC-103H	1.06
NCI-H647	1.01
NCI-H2228	0.421
EMC-BAC-2	0.866
NCI-H2087	0.824
Calu-6	0.75
HCC-366	0.561
NCI-H1666	0.744
NCI-H650	0.804
LK-2	0.221
NCI-H2126	1.04

Cell Line	relative viability
SK-MES-1	1.11
H3255	0.915
COR-L23	0.689
COR-L 105	0.692
IA-LM	0.667
LOU-NH91	0.737
ChaGo-K-1	1.21
NCI-H2170	1.25
NCI-H3122	0.248
HOP-62	1.02
HCC-44	0.825
A549	0.705
LU99A	0.465
BEN	0.998
HARA	1.21
HCC-78	0.377
NCI-H441	0.771
LCLC-97TM1	0.247
NCI-H1299	0.922

compound: CC(C)=CC[C@@H](O)C1=CC(=O)c2c(O)ccc(O)c2C1=O [Shikonin] + C[C@]1(O)C[C@@H](c2nc(-c3ccc4ccc(-c5ccccc5)nc4c3)c3c(N)nccn32)C1 [Linsitinib] (partner 1 µM); test: as above; conditions: first compound 0.01 µM
How it was run: as §1

Cell Line	relative viability
PC-14	0.978
EBC-1	0.984
NCI-H1703	0.797
NCI-H2009	1.23
PC-3 [JPC-3]	0.923
LCLC-103H	1.03
NCI-H647	1.01
NCI-H2228	0.629
EMC-BAC-2	0.8
NCI-H2087	1.27
Calu-6	0.984
HCC-366	0.592
NCI-H1666	0.835
NCI-H650	0.975
LK-2	0.589
NCI-H2126	0.71
SK-MES-1	1.18
H3255	0.999

Cell Line	relative viability
COR-L23	0.99
COR-L 105	1.1
IA-LM	0.738
LOU-NH91	0.904
NCI-H3122	1.03
HOP-62	0.994
HCC-44	0.798
A549	0.59
LU99A	0.573
BEN	1.07
HARA	1.1
HCC-78	0.499
NCI-H441	0.618
LCLC-97TM1	0.175
NCI-H1395	1.08
NCI-H1299	1
NCI-H1793	0.894

same assay, conditions: first compound 0.1 µM

Cell Line	relative viability
PC-14	0.997
EBC-1	0.857
NCI-H1703	1.3
NCI-H2009	1.25
NCI-H1993	0.732
NCI-H520	1.11
PC-3 [JPC-3]	1.07
LCLC-103H	1.21
NCI-H647	1.37
NCI-H2228	0.738
EMC-BAC-2	0.836
NCI-H2087	1.3
Calu-6	1.08
HCC-366	0.852
NCI-H1666	0.802
LK-2	0.539
NCI-H2126	0.814
SK-MES-1	1.06

Cell Line	relative viability
H3255	1.05
COR-L23	0.865
COR-L 105	0.971
IA-LM	0.473
LOU-NH91	0.999
NCI-H3122	1.07
HOP-62	0.806
HCC-44	0.636
A549	0.485
LU99A	0.522
BEN	0.962
HARA	0.925
HCC-78	0.496
NCI-H441	0.573
LCLC-97TM1	0.176
NCI-H1395	1.4
NCI-H1299	1.03
NCI-H1793	0.778

same assay, conditions: first compound 0.3162 µM

Cell Line	relative viability
PC-14	1.12
EBC-1	0.727
NCI-H1703	0.555
NCI-H2009	1.14
NCI-H1993	0.681
NCI-H520	1.07
PC-3 [JPC-3]	0.951
LCLC-103H	1.26
NCI-H647	1.51
NCI-H2228	0.7
EMC-BAC-2	0.839
NCI-H2087	0.927
Calu-6	0.984
HCC-366	0.985
NCI-H1666	0.807
NCI-H650	0.843
LK-2	0.527
NCI-H2126	0.752
SK-MES-1	1.04

Cell Line	relative viability
H3255	1.06
COR-L23	0.917
COR-L 105	0.845
IA-LM	0.434
LOU-NH91	1.06
NCI-H3122	1.09
HOP-62	0.987
HCC-44	0.685
A549	0.728
LU99A	0.525
BEN	1.12
HARA	1.01
HCC-78	0.658
NCI-H441	0.578
LCLC-97TM1	0.173
NCI-H1395	0.878
NCI-H1299	0.82
NCI-H1793	0.891

same assay, conditions: first compound 1 µM

Cell Line	relative viability
PC-14	0.983
EBC-1	1.02
NCI-H1703	0.417
NCI-H2009	0.848
NCI-H1993	0.672
NCI-H520	1.07
PC-3 [JPC-3]	1.03
LCLC-103H	1.23
NCI-H647	1.32
NCI-H2228	0.626
EMC-BAC-2	0.855
NCI-H2087	0.839
Calu-6	0.972
HCC-366	0.673
NCI-H1666	0.865
NCI-H650	0.845
LK-2	0.473
NCI-H2126	0.699
SK-MES-1	1.08

Cell Line	relative viability
H3255	1.08
COR-L23	0.797
COR-L 105	0.655
IA-LM	0.573
LOU-NH91	0.974
NCI-H3122	1.03
HOP-62	0.807
HCC-44	0.694
A549	0.637
LU99A	0.536
BEN	1.07
HARA	0.925
HCC-78	0.56
NCI-H441	0.516
LCLC-97TM1	0.162
NCI-H1395	1.05
NCI-H1299	0.659
NCI-H1793	1.07

Reference: the supplement of paper PMC10307832
